Assay: Surface tension of aqueous solutions (Du Noüy-Padday method, platinum rod probe)
Assay type: physicochemical
Conditions: for Minimum hydrotrope concentration (MHC) or critical micelle concentration (CMC) / surface tension of water (γsat): in water at 25° C.; for surface tension of water (γsat): saturation surface tension; for concentration necessary to lower the surface tension / surface tension reached at the stated concentration: water
Procedure: The term “surfactant” or “surface-active agent” denotes a compound that reduces surface tension when it is dissolved in water or in an aqueous medium, or that reduces the interfacial tension between two liquids, between a liquid and a solid or between a liquid and a gas. As a general rule, the surface-active properties of a compound may be measured by the plate method using a platinum rod as probe (Du Nouy-Padday method, as described in J F Padday, A R Pitt, R M Pashley, J. Chem. Soc. Faraday. Trans 1, 1975, 71, 1919-1931). The Du Nouy-Padday method is used for measuring the equilibrium of surface tension or of dynamic surface tension at the air/liquid interface.
Surface tension was measured at (25.0±0.1)° C. with a Krüss K100MK2 tensiometer using a platinum rod as probe. A total of 1.0 ml of water was added to the measuring vessel. When the surface tension is stable (standard deviation of the last five measurements of 0.2 mN/m), manual dilution is carried out with a concentrated solution of surfactant to its limit of solubility while maintaining constant volume.
In the present study, the general characteristics of the surfactants were evaluated by measuring the reduction in saturated surface tension (γsat) and the critical micelle concentration (CMC) of the mixture (3+4) previously obtained in water at 25° C. The surface-active properties were compared against those of the pure compounds.
The surface tension of aqueous solutions containing increasing concentrations of each of the compounds was measured by the Du Noüy-Padday method using a platinum rod as probe (method described in J. F. Padday, A. R. Pitt, R. M. Pashley, J. Chem. Soc. Faraday. Trans 1, 1975, 71, 1919-1931). The data are presented graphically in FIG. 1, showing analysis of the surface tension as a function of the concentration of the sorbitan ether derivatives ([…] (black diamonds), C12EthSorb (black lozenges), C5/C12EthSorb (black triangles)). The value of the critical micelle concentration (CMC) is shown with a small arrow for C5EthSorb.
The general characteristics of the surfactants were evaluated as in example 4 by measuring the reduction in saturated surface tension (γsat) and the critical micelle concentration (CMC) of the mixture (C5/C12 MeGlu) obtained previously in water at 25° C. The surface-active properties were compared with pure compounds.
The surface tension of aqueous solutions containing increasing concentrations of each of the compounds was measured by the plate method using a platinum rod as probe (Du Nouy-Padday method as described in J F Padday, A R Pitt, R M Pashley, J. Chem. Soc. Faraday. Trans 1, 1975, 71, 1919-1931). The data are shown in FIG. 2, showing analysis of the surface tension from the concentration of the ether derivatives of methyl glucoside (C5EthMeGlu (black star), C12EthMeGlu (black diamond), C5/C12EthMeGlu (black cross)).

[1] = ether derivatives of methyl glucoside

Minimum hydrotrope concentration (MHC) or critical micelle concentration (CMC) [1] [mg/L] | surface tension of water (γsat) [1] [mN/m] | concentration necessary to lower the surface tension (methyl glucoside ethers) [µg/mL] | surface tension reached at the stated concentration (methyl glucoside ethers) [mN/m] | Minimum hydrotrope concentration (MHC) or critical micelle concentration (CMC) (sorbitan ether derivatives) [mg/L] | surface tension of water (γsat) (sorbitan ether derivatives) [mN/m] | concentration necessary to lower the surface tension (sorbitan ethers, to lower the surface tension by 31 mN/m) [µg/mL] | surface tension reached at the stated concentration (sorbitan ethers) [mN/m] | Substance
8199 | 32 | 8199 | 32 |  |  |  |  | pentyl α-D-methyl glucopyranoside [Product C5EthMeGlu]
 |  |  |  | 1779 | 32 | 1179 | 31 | pentyl sorbitan [Product C5EthSorb]
 |  |  |  | 30.2 | 31 |  |  | (6+5+3−)-dodecyl sorbitan [Product C12EthSorb]
4.5 | 28 |  |  |  |  |  |  | (6+4)-O-dodecyl-α-D-methyl glucopyranoside [Product C12EthMeGlu]
